Patent US5585355A, “Method for increasing blood-ocular barrier permeability with permeabilizer peptides” (Alkermes, Inc., priority 1994, dated 1996)

What was measured:
blood-ocular barrier [1] = assay: Uptake of [3H]-ganciclovir into the eye after arterial infusion of A-7 (VEP); format: in vivo, guinea pig; settings: for KIN of [3H]-ganciclovir: 0 min to 3.0 min; for KIN for ganciclovir, times higher in the presence of A-7: 0 to 3.0 min
Method: Animals were anaesthetized with 6 mg/kg xylazine (Rompun®, Mobay Corp., Shawnee, Kans.) and 30 mg/kg ketamine (Vetacet®, Abeco Co., Inc., Fort Dodge, Iowa) before surgically exposing the neck vessels. The vascular eye perfusion (VEP) technique used here and previously described by Zlokovic et al. (1992, Exp. Eye Res., 54:471) allows for the study of uptake of agents in to the eye while protecting the eye from systemic metabolic changes. The technique is briefly summarized here. A fine polyethylene catheter connected to the extracorporeal perfusion system by silicon tubings was inserted into the right common carotid artery. Immediately after the start of the perfusion, the contralateral carotid artery was ligated and both jugular veins cut to allow free drainage of the perfusate.
The perfusion medium consisted of 20% washed sheep red blood cells (RBC) suspended in mock plasma of the following composition (in mM): 123 NaCl, 4 KCl, 2.5 CaCl2.H2 O, 25 NaHCO3, 1.2 KH2 PO4, 1.8 MgCl2.6H2 O and 5.5 D-glucose. The perfusion medium was gassed with 96% O2 and 4% CO2 and warmed to 37.6° C., and was pumped from a reservoir through a water bath using a Rainin Rabbit peristaltic pump (Rainin Instruments, Woburn, Mass.). All tubing was low gas permeable silicon, and all metal was medical grade stainless steel. The temperature and perfusion pressure were continuously recorded, and the acid-base status frequently monitored. Perfusion pressure was kept slightly above the animal's blood pressure to eliminate any possible ingress from the systemic circulation.
Isotopically labeled [^14 C]-sucrose was introduced into the perfusion circuit after the 5 minute infusion at a rate of 0.4 to 0.6 μCi/ml/min, over periods ranging from 1.5 min to 4.5 min. In all experiments, the perfusion was terminated by severing the right common carotid artery and decapitating the animal.
As large a sample as possible (30-40 μl) of the aqueous humor was removed with a 0.5 cc U-100 insulin syringe using 28 G 1/2 microfine IV needle (no dead-space), immediately after the perfusion was terminated. The eyes were enucleated and the lenses rapidly excised via a lateral approach 1.5 mm posteriorly to the limbus. The lenses were blotted on filter paper to remove any adhering aqueous humor and to avoid epithelial contamination by aqueous radioactivity. Corneas were dissected circumferentially about 0.5 mm anteriorly to the limbus. After removal of the anterior segment of the eye, the vitreous body was dissected from the retinal surface. Retinas were scooped from the lying epithelium. All tissues were blotted after dissection to minimize contamination by adjacent tissue layers and/or fluids. Samples of plasma, aqueous humor, lens, cornea, retina and posterior vitreous were treated with 2 ml Beckman Tissue Solubilizer (BTS)-450, and 16 ml of scintillant (Beckman Ready Organic, Fullerton, Calif.). Radioactivity was determined in a Beckman LS-7500 liquid scintillation spectrometer.
The methodology of these experiments is similar to that of Example 1 described above. […] The ocular compartments were dissected as described above and analyzed for uptake of [^3 H]-ganciclovir.

blood-ocular barrier [2] = assay: Uptake of [3H]-ganciclovir into retina and lens following intravenous administration of A-7; format: in vivo, guinea pig; settings: for Uptake of [3H]-ganciclovir, % of plasma concentration (W/W): five minute intravenous administration of A-7
Method: The methodology of these experiments is similar to that of Example 1 except for the following modifications. In this case, [^3 H]-ganciclovir (22 Ci mmol^-1, Moravek Brea, Calif.) was injected into the right jugular vein instead of the common carotid artery. […] The lenses and retinas were removed as described in Example 1.

Substance: Arginine-Proline-Hydroxyproline-Glycine-Thienylalanine-Serine-Proline-4-Me-Tyrosine-(CH2 NH)Arginine [A-7]
- Uptake of [3H]-ganciclovir, % of plasma concentration (W/W) (blood-ocular barrier [1]; aqueous, 1.5 min, arterial infusion of A-7): 0.46 ± 0.1 % of Plasma Concentration (W/W
- Uptake of [3H]-ganciclovir, % of plasma concentration (W/W) (blood-ocular barrier [1]; aqueous, 3.0 min, arterial infusion of A-7): 0.51 ± 0.21 % of Plasma Concentration (W/W
- Uptake of [3H]-ganciclovir, % of plasma concentration (W/W) (blood-ocular barrier [1]; aqueous, 4.5 min, arterial infusion of A-7): 0.55 ± 1.0 % of Plasma Concentration (W/W
- Ganciclovir uptake into other compartments (blood-ocular barrier [1]; compartments other than retina and lens, within the measured time periods): did not substantially increase
- KIN of [3H]-ganciclovir (blood-ocular barrier [1]; cornea): 1.21 µL/min/g
- Uptake of [3H]-ganciclovir, % of plasma concentration (W/W) (blood-ocular barrier [1]; cornea, 1.5 min, arterial infusion of A-7): 1.16 ± 0.53 % of Plasma Concentration (W/W
- Uptake of [3H]-ganciclovir, % of plasma concentration (W/W) (blood-ocular barrier [1]; cornea, 3.0 min, arterial infusion of A-7): 2.98 ± 0.33 % of Plasma Concentration (W/W
- Uptake of [3H]-ganciclovir, % of plasma concentration (W/W) (blood-ocular barrier [1]; cornea, 4.5 min, arterial infusion of A-7): 2.92 ± 0.46 % of Plasma Concentration (W/W
- KIN of [3H]-ganciclovir (blood-ocular barrier [1]; lens): 40.3 ± 5.6 µL/min/g
- KIN for ganciclovir, times higher in the presence of A-7 (blood-ocular barrier [1]; lens): 1.3 times
- Uptake of [3H]-ganciclovir, % of plasma concentration (W/W) (blood-ocular barrier [1]; lens, 1.5 min, arterial infusion of A-7): 7.89 ± 0.52 % of Plasma Concentration (W/W
- Uptake of [3H]-ganciclovir, % of plasma concentration (W/W) (blood-ocular barrier [1]; lens, 3.0 min, arterial infusion of A-7): 11.86 ± 1.42 % of Plasma Concentration (W/W
- Uptake of [3H]-ganciclovir, % of plasma concentration (W/W) (blood-ocular barrier [1]; lens, 4.5 min, arterial infusion of A-7): 13.37 ± 1.06 % of Plasma Concentration (W/W
- Increase in uptake of ganciclovir into the lens (blood-ocular barrier [1]; lens, from 1.5 to 4.5 minutes of VEP): 1.5-2 fold
- KIN of [3H]-ganciclovir (blood-ocular barrier [1]; retina): 21.2 ± 1.5 µL/min/g
- KIN for ganciclovir, times higher in the presence of A-7 (blood-ocular barrier [1]; retina): 2.6 times
- Uptake of [3H]-ganciclovir, % of plasma concentration (W/W) (blood-ocular barrier [1]; retina, 1.5 min, after 5 min arterial infusion of A-7): 3.96 ± 0.68 % of Plasma Concentration (W/W
- Uptake of [3H]-ganciclovir, % of plasma concentration (W/W) (blood-ocular barrier [1]; retina, 3.0 min, after 5 min arterial infusion of A-7): 6.56 ± 0.79 % of Plasma Concentration (W/W
- Uptake of [3H]-ganciclovir, % of plasma concentration (W/W) (blood-ocular barrier [1]; retina, 4.5 min, after 5 min arterial infusion of A-7): 7.42 ± 1.14 % of Plasma Concentration (W/W
- Increase of retinal uptake of ganciclovir compared to vehicle control (blood-ocular barrier [1]; retina, from 1.5 to 4.5 minutes of VEP): two-fold
- KIN of [3H]-ganciclovir (blood-ocular barrier [1]; vitreous): 0.47 µL/min/g
- Uptake of [3H]-ganciclovir, % of plasma concentration (W/W) (blood-ocular barrier [1]; vitreous, 1.5 min, arterial infusion of A-7): 0.02 ± 0.00 % of Plasma Concentration (W/W
- Uptake of [3H]-ganciclovir, % of plasma concentration (W/W) (blood-ocular barrier [1]; vitreous, 3.0 min, arterial infusion of A-7): 0.04 ± 0.03 % of Plasma Concentration (W/W
- Uptake of [3H]-ganciclovir, % of plasma concentration (W/W) (blood-ocular barrier [1]; vitreous, 4.5 min, arterial infusion of A-7): 0.11 ± 0.04 % of Plasma Concentration (W/W
- Uptake of [3H]-ganciclovir, % of plasma concentration (W/W) (blood-ocular barrier [2]; lens, 1.5 min): 5.46 ± 1.08 % of Plasma Concentration (W/W
- Uptake of [3H]-ganciclovir, % of plasma concentration (W/W) (blood-ocular barrier [2]; lens, 4.5 min): 10.01 ± 1.37 % of Plasma Concentration (W/W
- Uptake of [3H]-ganciclovir, % of plasma concentration (W/W) (blood-ocular barrier [2]; retina, 1.5 min): 3.94 ± 0.36 % of Plasma Concentration (W/W
- Uptake of [3H]-ganciclovir, % of plasma concentration (W/W) (blood-ocular barrier [2]; retina, 4.5 min): 8.45 ± 1.00 % of Plasma Concentration (W/W
- Increase of retinal uptake of [3H]-ganciclovir above vehicle treated controls (blood-ocular barrier [2]; retina, intravenous A-7, p=0.001): more than 2 fold
